Columns and labels:
[1] = test system: artificial bacterial consortium; experiment: Dose protocol, bacterial growth inhibition (O.D. 650 nm) in synthetic white water, concurrent fed strategy; assay type: cell-based; conditions: for ppm BIT / ppm BNPD / ppm DBDCB / ppm DBNPA / ppm DCOI / ppm DGH / ppm DIDAC / ppm Dithiol / ppm Glut / ppm MBT: alone or with AmBr; for ppm Sulfone: concentration of Sulfone at 50% inhibition
Method: A measured amount of ammonium bromide activated with sodium hypochlorite and a measured amount of a non-oxidizing biocide were added to a suspension of bacteria. The effectiveness of the combination of the biocides is determined by measuring growth or lack thereof after an appropriate incubation time.
(§1) The efficacy of the active materials and blends was determined using a dose protocol. The actives were evaluated in synthetic white water with pH values of 5.5 and 8.0. The materials were tested against an artificial bacterial consortium containing approximately equal numbers of six bacterial strains. Although the test strains are representative of organisms present in paper mill systems, the effect is not limited to these bacteria. Two of the strains were Klebsiella pneumonia (ATCC 13883) and Pseudomonas aeruginosa (ATCC 15442). The other four strains were isolated from papermill systems and have been identified as Curtobacterium flaccumfaciens, Burkholderia cepacia, Bacillus maroccanus, and Pseudomonas glathei. Each strain was inoculated at 37° C. overnight, then suspended in sterile saline. Equal volumes of each strain were then combined to prepare the consortium. The bacterial consortium was distributed into the wells of a microtiter plate in the presence and absence of various concentrations of the active materials. The microtiter plates were incubated at 37° C. Optical density (O.D.) readings at 650 nm were taken initially (t0) and after time 4 hours (t4) of incubation.
(§2) The raw data was converted to “bacterial growth inhibition precentages” according to the following formula: % Inhibition=[(a−b)÷a]*100 where: • a=(O.D. of control at tn)−(O.D. of control at t0) • b=(O.D. of treatment at tn)−(O.D. of treatment at t0)
(§3) The inhibition values can be plotted versus dosage for each active and the particular blend. […] In the examples (tables) below, the I50 values are expressed as parts per million (ppm) of active material.
(§4) The synergism index (SI) was calculate by the equations described by F. C. Kull, P. C. Eisman, H. D. Sylwestrowicz, and R. L. Mayer (1961), Applied Microbiology 9, 538–541. The values are based on the amount needed to achieve a specified end point. The end point selected for these studies was 50% inhibition of bacterial growth. Synergy Index (SI)=(QA÷Qa)+(QB÷Qb) where: • QA=quantity of compound A in mixture, producing the end point • Qa=quantity of compound A, acting alone, producing the end point • QB=quantitiy of compound B in mixture, producing the end point • Qb=quantity of compound B, acting alone, producing the end point
(§5) If SI is less than 1, synergism exists; if SI is greater than 1, antagonism exists; if SI is equal to 1, an additive effect exists.

[2] = test system: artificial bacterial consortium; experiment: Dose protocol, bacterial growth inhibition (O.D. 650 nm) in synthetic white water, sequential fed strategy, one hour delay between the additions; assay type: cell-based; conditions: for ppm DBNPA: alone or with AmBr; for ppm MBT: concentration of MBT at 50% inhibition; for ppm Sulfone: concentration of Sulfone at 50% inhibition
Method: A measured amount of ammonium bromide activated with sodium hypochlorite was added to a suspension of bacteria and the cell suspension incubated for a selected time after which a measured amount of a selected non-oxidizing biocide was then added to the suspension. The effectiveness of the combination of biocides was determined by measuring growth or lack thereof after an additional appropriate incubation time.
A measured amount of a selected non-oxidizing biocide was added to a suspension of bacteria and the cell suspension was incubated for a selected time after which a measured amount of ammonium bromide activated with sodium hypochlorite was then added to the suspension. The effectiveness of the combination of biocides was determined by measuring growth or lack thereof after an additional appropriate incubation time.
as §1, §2, §3, §4, §5

[3] = pH 5.5, amount giving 50% inhibition
[4] = pH 8.0, amount giving 50% inhibition
[5] = DBNPA & AmBr, pH 5.5, end point 50% inhibition
[6] = DBNPA & AmBr, pH 8.0, end point 50% inhibition
[7] = pH 5.5, alone or with AmBr at the stated ratio
[8] = pH 8.0, alone or with AmBr at the stated ratio
[9] = Sulfone & AmBr, at 50% inhibition, pH 5.5
[10] = Sulfone & AmBr, at 50% inhibition, pH 8.0

SMILES: O=c1[nH]sc2ccccc12 [BIT, 1,2-Benzisothiazolin-3-one]
- Synergy Index ([1]; BIT & AmBr, pH 5.5, end point 50% inhibition): 1.00
- Synergy Index ([1]; BIT & AmBr, pH 8.0, end point 50% inhibition): 1.00
- ppm BIT [1, 3]: 1.62 ppm
- ppm BIT [1, 4]: 3.59 ppm

SMILES: O=[N+]([O-])C(Br)(CO)CO [BNPD, 2-Bromo-2-nitropropane-1,3-diol]
- Synergy Index ([1]; BNPD & AmBr, pH 5.5, end point 50% inhibition): 1.00
- Synergy Index ([1]; BNPD & AmBr, pH 8.0, end point 50% inhibition): 1.00
- ppm BNPD [1, 3]: 1.16 ppm
- ppm BNPD [1, 4]: 1.34 ppm

SMILES: N#CCCC(Br)(C#N)CBr (centres unmarked) [DBDCB, 1,2-Dibromo-2,4-dicyanobutane]
- Synergy Index ([1]; DBDCB & AmBr, pH 5.5, end point 50% inhibition): 1.00
- Synergy Index ([1]; DBDCB & AmBr, pH 8.0, end point 50% inhibition): 1.00
- ppm DBDCB [1, 3]: 2.70 ppm
- ppm DBDCB [1, 4]: 1.85 ppm

SMILES: N#CC(Br)(Br)C(N)=O [DBNPA, 2,2-Dibromo-3-nitrilopropionamide]
- Synergy Index [1, 5]: 1.00
- Synergy Index [1, 6]: 1.00
- ppm DBNPA [1, 3]: 3.08 ppm
- ppm DBNPA [1, 4]: 2.86 ppm
- Synergy Index [2, 5]: 1.00
- Synergy Index [2, 6]: 1.00
- ppm DBNPA [2, 3]: 3.09 ppm
- ppm DBNPA [2, 4]: 2.33 ppm

SMILES: CCCCCCCCn1sc(Cl)c(Cl)c1=O [DCOI, 4,5-Dichloro-2-n-octyl-3(2H)-isothiazolinone]
- Synergy Index ([1]; DCOI & AmBr, pH 5.5, end point 50% inhibition): 1.00
- Synergy Index ([1]; DCOI & AmBr, pH 8.0, end point 50% inhibition): 1.00
- ppm DCOI [1, 3]: 0.39 ppm
- ppm DCOI [1, 4]: 1.49 ppm

SMILES: CCCCCCCCCCCCNC(=N)N.Cl [DGH, N-Dodecylguanidine hydrochloride]
- Synergy Index ([1]; DGH & AmBr, pH 5.5, end point 50% inhibition): 1.00
- Synergy Index ([1]; DGH & AmBr, pH 8.0, end point 50% inhibition): 1.00
- ppm DGH [1, 3]: 3.11 ppm
- ppm DGH [1, 4]: 1.84 ppm

SMILES: CCCCCCCCCC[N+](C)(C)CCCCCCCCCC.[Cl-] [DIDAC, Didecyl dimethyl ammonium chloride]
- Synergy Index ([1]; DIDAC & AmBr, pH 5.5, end point 50% inhibition): 1.00
- Synergy Index ([1]; DIDAC & AmBr, pH 8.0, end point 50% inhibition): 1.00
- ppm DIDAC [1, 3]: 1.82 ppm
- ppm DIDAC [1, 4]: 1.62 ppm

SMILES: O=c1ssc(Cl)c1Cl [Dithiol, 4,5-Dichloro-1,2-dithiol-3-one]
- Synergy Index ([1]; Dithiol & AmBr, pH 5.5, end point 50% inhibition): 1.00
- Synergy Index ([1]; Dithiol & AmBr, pH 8.0, end point 50% inhibition): 1.00
- ppm Dithiol [1, 3]: 0.63 ppm
- ppm Dithiol [1, 4]: 0.84 ppm

SMILES: O=CCCCC=O [Glut, Glutaraldehyde]
- Synergy Index ([1]; Glut & AmBr, pH 5.5, end point 50% inhibition): 1.00
- Synergy Index ([1]; Glut & AmBr, pH 8.0, end point 50% inhibition): 1.00
- ppm Glut [1, 3]: 2.06 ppm
- ppm Glut [1, 4]: 6.68 ppm

SMILES: N#CSCSC#N [MBT, Methylene bisthiocyanate]
- Synergy Index ([1]; MBT & AmBr, pH 5.5, end point 50% inhibition): 1.00
- Synergy Index ([1]; MBT & AmBr, pH 8.0, end point 50% inhibition): 1.00
- ppm MBT [1, 3]: 0.36 ppm
- ppm MBT [1, 4]: 0.71 ppm
- Synergy Index ([2]; MBT & AmBr, at 50% inhibition, pH 5.5): 1.00
- Synergy Index ([2]; MBTC & AmBr, at 50% inhibition, pH 8.0): 1.00
- ppm MBT [2, 7]: 0.38 ppm
- ppm MBT [2, 8]: 0.73 ppm

SMILES: O=S(=O)(C(Cl)(Cl)Cl)C(Cl)(Cl)Cl [Sulfone, bis(trichloromethyl)sulfone]
- Synergy Index [1, 9]: 1.00
- Synergy Index [1, 10]: 1.00
- ppm Sulfone [1, 7]: 1.87 ppm
- ppm Sulfone [1, 8]: 8.42 ppm
- Synergy Index [2, 9]: 1.00
- Synergy Index [2, 10]: 1.00
- ppm Sulfone [2, 7]: 4.44 ppm
- ppm Sulfone [2, 8]: 10.25 ppm
